# Data taken from paper PMC7585637 (Biomolecules & Therapeutics, 2020).
# Biological target: T1, SIRT1 (Homo sapiens, UniProt Q96EB6)
# T1 sequence (Q96EB6 2-747): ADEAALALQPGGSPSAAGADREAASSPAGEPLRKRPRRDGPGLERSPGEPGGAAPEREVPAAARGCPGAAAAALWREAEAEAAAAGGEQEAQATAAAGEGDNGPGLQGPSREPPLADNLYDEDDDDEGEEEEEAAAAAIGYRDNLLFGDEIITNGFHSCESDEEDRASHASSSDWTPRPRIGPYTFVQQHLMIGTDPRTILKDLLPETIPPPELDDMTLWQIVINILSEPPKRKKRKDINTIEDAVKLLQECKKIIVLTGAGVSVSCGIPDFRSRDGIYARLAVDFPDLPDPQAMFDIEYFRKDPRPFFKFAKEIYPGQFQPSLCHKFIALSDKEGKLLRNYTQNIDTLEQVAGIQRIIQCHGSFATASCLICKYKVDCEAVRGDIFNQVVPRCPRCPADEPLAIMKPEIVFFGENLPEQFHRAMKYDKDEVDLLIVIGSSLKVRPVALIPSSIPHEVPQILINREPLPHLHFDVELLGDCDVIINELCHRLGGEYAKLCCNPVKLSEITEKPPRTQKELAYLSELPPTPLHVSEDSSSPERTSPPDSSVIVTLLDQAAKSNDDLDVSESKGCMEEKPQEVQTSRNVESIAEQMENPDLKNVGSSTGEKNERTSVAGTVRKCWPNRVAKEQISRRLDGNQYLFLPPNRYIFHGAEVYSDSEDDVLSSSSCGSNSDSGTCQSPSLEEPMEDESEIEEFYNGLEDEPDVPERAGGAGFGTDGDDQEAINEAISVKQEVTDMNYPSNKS
# Assay: Fluor-de-Lys SIRT1 fluorometric deacetylase assay
# Format: biochemical
compound,measurement,value
"CC(C)(C)c1cc(C=C2C(=O)NC(=S)NC2=O)cc(C(C)(C)C)c1O [MHY2256, 5-(3,5-Di-tert-butyl-4-hydroxybenzylidene)-2-thioxodihydropyrimidine-4,6(1H,5H)-dione]",IC50,1.02 µM
